According to patent publication US4401604A, “Process for preparing thiosulfenamide derivatives of N-phosphonomethylglycine triesters” (Monsanto Company, priority 1981, dated 1983):

Columns and labels:
Assay type in all cases: in vivo
Barnyardgrass [1] = assay: Post-emergence herbicidal activity, greenhouse; conditions: 4 WAT
Method in brief: (§1)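 2–3-week-old plants, post-emergence atomizer spray, ~0.4% emulsifier; candidate from 1.0% stock in acetone, THF or water. Greenhouse hold; injury vs control at ~2/4 WAT.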

Canada Thistle [2] = assay: Post-emergence herbicidal activity, greenhouse; conditions: Table I, 4 WAT
Method in brief: as §1

Cocklebur [3] = assay: Post-emergence herbicidal activity, greenhouse; conditions: 4 WAT
Method in brief: as §1

Crabgrass = assay: Post-emergence herbicidal activity, greenhouse; conditions: Table II, 4 WAT
Method in brief: as §1

Downy Brome [4] = assay: Post-emergence herbicidal activity, greenhouse; conditions: 4 WAT
Method in brief: as §1

Hemp Sesbania = assay: Post-emergence herbicidal activity, greenhouse; conditions: Table II, 4 WAT
Method in brief: as §1

Johnsongrass [5] = assay: Post-emergence herbicidal activity, greenhouse; conditions: Table I, 4 WAT
Method in brief: as §1

Lambsquarters [6] = assay: Post-emergence herbicidal activity, greenhouse; conditions: 4 WAT
Method in brief: as §1

Morningglory [7] = assay: Post-emergence herbicidal activity, greenhouse; conditions: 4 WAT
Method in brief: as §1

Panicum Spp = assay: Post-emergence herbicidal activity, greenhouse; conditions: Table II, 4 WAT
Method in brief: as §1

Quackgrass [8] = assay: Post-emergence herbicidal activity, greenhouse; conditions: Table I, 4 WAT
Method in brief: as §1

Rice = assay: Post-emergence herbicidal activity, greenhouse; conditions: Table II, 4 WAT
Method in brief: as §1

Smartweed [9] = assay: Post-emergence herbicidal activity, greenhouse; conditions: 4 WAT
Method in brief: as §1

Sorghum = assay: Post-emergence herbicidal activity, greenhouse; conditions: Table II, 4 WAT
Method in brief: as §1

Soybean = assay: Post-emergence herbicidal activity, greenhouse; conditions: Table II, 4 WAT
Method in brief: as §1

Sugar Beet = assay: Post-emergence herbicidal activity, greenhouse; conditions: Table II, 4 WAT
Method in brief: as §1

Velvetleaf [10] = assay: Post-emergence herbicidal activity, greenhouse; conditions: 4 WAT
Method in brief: as §1

Wheat = assay: Post-emergence herbicidal activity, greenhouse; conditions: Table II, 4 WAT
Method in brief: as §1

Wild Buckwheat = assay: Post-emergence herbicidal activity, greenhouse; conditions: Table II, 4 WAT
Method in brief: as §1

Yellow Nutsedge [11] = assay: Post-emergence herbicidal activity, greenhouse; conditions: Table I, 4 WAT
Method in brief: as §1

Barnyardgrass [12] = assay: Pre-emergent herbicidal activity; conditions: Table III; 11.2 kg/h; 2 WAT
Method in brief: (§2)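 Emergence counts versus untreated controls, taken after approximately two weeks on a wet sand bench, give an index of average percent control per species. The active ingredient, at a known amount, is blended into the soil that covers seeds pressed onto compacted top soil; watering occurs through the pan bottoms.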

Canada Thistle [13] = assay: Pre-emergent herbicidal activity; conditions: Table III; 11.2 kg/h; 2 WAT
Method in brief: as §2

Cocklebur [14] = assay: Pre-emergent herbicidal activity; conditions: Table III; 11.2 kg/h; 2 WAT
Method in brief: as §2

Downy Brome [15] = assay: Pre-emergent herbicidal activity; conditions: Table III; 11.2 kg/h; 2 WAT
Method in brief: as §2

Johnsongrass [16] = assay: Pre-emergent herbicidal activity; conditions: Table III; 11.2 kg/h; 2 WAT
Method in brief: as §2

Lambsquarters [17] = assay: Pre-emergent herbicidal activity; conditions: Table III; 11.2 kg/h; 2 WAT
Method in brief: as §2

Morningglory [18] = assay: Pre-emergent herbicidal activity; conditions: Table III; 11.2 kg/h; 2 WAT
Method in brief: as §2

Quackgrass [19] = assay: Pre-emergent herbicidal activity; conditions: Table III; 11.2 kg/h; 2 WAT
Method in brief: as §2

Smartweed [20] = assay: Pre-emergent herbicidal activity; conditions: Table III; 11.2 kg/h; 2 WAT
Method in brief: as §2

Velvetleaf [21] = assay: Pre-emergent herbicidal activity; conditions: Table III; 11.2 kg/h; 2 WAT
Method in brief: as §2

Yellow Nutsedge [22] = assay: Pre-emergent herbicidal activity; conditions: Table III; 11.2 kg/h; 2 WAT
Method in brief: as §2

**Q.** Which results are given for `CCCCCCCCSSN(CC(=O)OC)CP(=O)(Oc1ccccc1)Oc1ccccc1` [II, Glycine, N-[(diphenoxyphosphinyl)methyl]-N-(octyldithio)-, methyl ester]?
**A.** post-emergence herbicidal activity index (Barnyardgrass [1]; Table I, 5.6 kg/h): 2 (50-74% control); post-emergence herbicidal activity index (Barnyardgrass [1]; Table I, 11.2 kg/h): 2 (50-74% control); post-emergence herbicidal activity index (Barnyardgrass [1]; Table II, 0.28 kg/h): 0 (0- 24% control); post-emergence herbicidal activity index (Barnyardgrass [1]; Table II, 1.12 kg/h): 1 (25-49% control); post-emergence herbicidal activity index (Barnyardgrass [1]; Table II, 5.6 kg/h): 3 (75-99% control); post-emergence herbicidal activity index (Canada Thistle [2]; 5.6 kg/h): 0 (0- 24% control); post-emergence herbicidal activity index (Canada Thistle [2]; 11.2 kg/h): 1 (25-49% control); post-emergence herbicidal activity index (Cocklebur [3]; Table I, 5.6 kg/h): 4 (100% control); post-emergence herbicidal activity index (Cocklebur [3]; Table I, 11.2 kg/h): 3 (75-99% control); post-emergence herbicidal activity index (Cocklebur [3]; Table II, 0.28 kg/h): 0 (0- 24% control); post-emergence herbicidal activity index (Cocklebur [3]; Table II, 1.12 kg/h): 1 (25-49% control); post-emergence herbicidal activity index (Cocklebur [3]; Table II, 5.6 kg/h): 3 (75-99% control); post-emergence herbicidal activity index (Crabgrass; 0.28 kg/h): 0 (0- 24% control); post-emergence herbicidal activity index (Crabgrass; 1.12 kg/h): 2 (50-74% control); post-emergence herbicidal activity index (Crabgrass; 5.6 kg/h): 4 (100% control); post-emergence herbicidal activity index (Downy Brome [4]; Table I, 5.6 kg/h): 2 (50-74% control); post-emergence herbicidal activity index (Downy Brome [4]; Table I, 11.2 kg/h): 1 (25-49% control); post-emergence herbicidal activity index (Downy Brome [4]; Table II, 0.28 kg/h): 0 (0- 24% control); post-emergence herbicidal activity index (Downy Brome [4]; Table II, 1.12 kg/h): 0 (0- 24% control); post-emergence herbicidal activity index (Downy Brome [4]; Table II, 5.6 kg/h): 2 (50-74% control); post-emergence herbicidal activity index (Hemp Sesbania; 0.28 kg/h): 0 (0- 24% control); post-emergence herbicidal activity index (Hemp Sesbania; 1.12 kg/h): 0 (0- 24% control); post-emergence herbicidal activity index (Hemp Sesbania; 5.6 kg/h): 1 (25-49% control); post-emergence herbicidal activity index (Johnsongrass [5]; 5.6 kg/h): 3 (75-99% control); post-emergence herbicidal activity index (Johnsongrass [5]; 11.2 kg/h): 3 (75-99% control); post-emergence herbicidal activity index (Lambsquarters [6]; Table I, 5.6 kg/h): 3 (75-99% control); post-emergence herbicidal activity index (Lambsquarters [6]; Table I, 11.2 kg/h): 4 (100% control); post-emergence herbicidal activity index (Lambsquarters [6]; Table II, 0.28 kg/h): 0 (0- 24% control); post-emergence herbicidal activity index (Lambsquarters [6]; Table II, 1.12 kg/h): 2 (50-74% control); post-emergence herbicidal activity index (Lambsquarters [6]; Table II, 5.6 kg/h): 3 (75-99% control); post-emergence herbicidal activity index (Morningglory [7]; Table I, 5.6 kg/h): 2 (50-74% control); post-emergence herbicidal activity index (Morningglory [7]; Table I, 11.2 kg/h): 2 (50-74% control); post-emergence herbicidal activity index (Morningglory [7]; Table II, 0.28 kg/h): 1 (25-49% control); post-emergence herbicidal activity index (Morningglory [7]; Table II, 1.12 kg/h): 1 (25-49% control); post-emergence herbicidal activity index (Morningglory [7]; Table II, 5.6 kg/h): 3 (75-99% control); post-emergence herbicidal activity index (Panicum Spp; 0.28 kg/h): 0 (0- 24% control); post-emergence herbicidal activity index (Panicum Spp; 1.12 kg/h): 0 (0- 24% control); post-emergence herbicidal activity index (Panicum Spp; 5.6 kg/h): 3 (75-99% control); post-emergence herbicidal activity index (Quackgrass [8]; 5.6 kg/h): 3 (75-99% control); post-emergence herbicidal activity index (Quackgrass [8]; 11.2 kg/h): 1 (25-49% control); post-emergence herbicidal activity index (Rice; 0.28 kg/h): 0 (0- 24% control); post-emergence herbicidal activity index (Rice; 1.12 kg/h): 1 (25-49% control); post-emergence herbicidal activity index (Rice; 5.6 kg/h): 3 (75-99% control); post-emergence herbicidal activity index (Smartweed [9]; Table I, 5.6 kg/h): 2 (50-74% control); post-emergence herbicidal activity index (Smartweed [9]; Table I, 11.2 kg/h): 4 (100% control); post-emergence herbicidal activity index (Smartweed [9]; Table II, 0.28 kg/h): 0 (0- 24% control); post-emergence herbicidal activity index (Smartweed [9]; Table II, 1.12 kg/h): 1 (25-49% control); post-emergence herbicidal activity index (Smartweed [9]; Table II, 5.6 kg/h): 2 (50-74% control); post-emergence herbicidal activity index (Sorghum; 0.28 kg/h): 0 (0- 24% control); post-emergence herbicidal activity index (Sorghum; 1.12 kg/h): 1 (25-49% control); post-emergence herbicidal activity index (Sorghum; 5.6 kg/h): 3 (75-99% control); post-emergence herbicidal activity index (Soybean; 0.28 kg/h): 0 (0- 24% control); post-emergence herbicidal activity index (Soybean; 1.12 kg/h): 0 (0- 24% control); post-emergence herbicidal activity index (Soybean; 5.6 kg/h): 2 (50-74% control); post-emergence herbicidal activity index (Sugar Beet; 0.28 kg/h): 0 (0- 24% control); post-emergence herbicidal activity index (Sugar Beet; 1.12 kg/h): 0 (0- 24% control); post-emergence herbicidal activity index (Sugar Beet; 5.6 kg/h): 3 (75-99% control); post-emergence herbicidal activity index (Velvetleaf [10]; Table I, 5.6 kg/h): 1 (25-49% control); post-emergence herbicidal activity index (Velvetleaf [10]; Table I, 11.2 kg/h): 3 (75-99% control); post-emergence herbicidal activity index (Velvetleaf [10]; Table II, 0.28 kg/h): 0 (0- 24% control); post-emergence herbicidal activity index (Velvetleaf [10]; Table II, 1.12 kg/h): 0 (0- 24% control); post-emergence herbicidal activity index (Velvetleaf [10]; Table II, 5.6 kg/h): 2 (50-74% control); post-emergence herbicidal activity index (Wheat; 0.28 kg/h): 0 (0- 24% control); post-emergence herbicidal activity index (Wheat; 1.12 kg/h): 0 (0- 24% control); post-emergence herbicidal activity index (Wheat; 5.6 kg/h): 3 (75-99% control); post-emergence herbicidal activity index (Wild Buckwheat; 0.28 kg/h): 0 (0- 24% control); post-emergence herbicidal activity index (Wild Buckwheat; 1.12 kg/h): 0 (0- 24% control); post-emergence herbicidal activity index (Wild Buckwheat; 5.6 kg/h): 3 (75-99% control); post-emergence herbicidal activity index (Yellow Nutsedge [11]; 5.6 kg/h): 1 (25-49% control); post-emergence herbicidal activity index (Yellow Nutsedge [11]; 11.2 kg/h): 2 (50-74% control); pre-emergent herbicidal activity index (Barnyardgrass [12]): 0 (0-24% control); pre-emergent herbicidal activity index (Canada Thistle [13]): 1 (25-49% control); pre-emergent herbicidal activity index (Cocklebur [14]): 0 (0-24% control); pre-emergent herbicidal activity index (Downy Brome [15]): 0 (0-24% control); pre-emergent herbicidal activity index (Johnsongrass [16]): 2 (50-74% control); pre-emergent herbicidal activity index (Lambsquarters [17]): 0 (0-24% control); pre-emergent herbicidal activity index (Morningglory [18]): 0 (0-24% control); pre-emergent herbicidal activity index (Quackgrass [19]): 0 (0-24% control); pre-emergent herbicidal activity index (Smartweed [20]): 0 (0-24% control); pre-emergent herbicidal activity index (Velvetleaf [21]): 0 (0-24% control); pre-emergent herbicidal activity index (Yellow Nutsedge [22]): 0 (0-24% control)
